We go through 3 compounds from patent US8889744B2, “Bis-trifluoromethyl honokiol analogs and their use in treating cancers” (priority 2009, dated 2014).

Entries after “also recorded” stand apart in the source; their conditions may differ.

One series concerns SVR angiosarcoma cells. As to the kind of experiment: In vivo tumorigenesis, SVR tumor model in mice. As to the method:
SVR (5×10^5) cells were injected into the flank of 6-week-old nude male mice obtained from Charles River Breeding Laboratories. When tumors became visible at approximately 1 week after inoculation, mice received 3 mg/day hexafluoro-honokiol, tacrolomis, or vehicle control suspended in 20% Intralipid (Baxter Healthcare, Deerfield, Ill.) in a total volume of 0.3 ml intraperitoneally. Tumor volume was measured using the formula (width^2×length)×0.52 where width represents the shortest dimension.
The efficacy of the hexafluoro-honokiol compound was then tested in an SVR tumor model in mice, and compared to that of a control and to Tacrolimis. The assay was performed according to the conditions in J Biol Chem. 2003 Sep. 12; 278(37):35501-7, the contents of which are hereby incorporated by reference.
Nude mice injected with 0.5 million SVR angiosarcoma cells were treated with hexafluoro-honokiol (120 mg/kg), Tacrolimis, or control (Cancer Res. 2009 Jun. 1; 69(11):4621-8), with a total of 4 mice in each group. […] The degree of inhibition with hexafluoro-honokiol was more marked than with the same dose of Tacrolimis.

The next series relates to Rac-GTP (active Rac). As to the kind of experiment: Rac activation pull-down assay (GST-PBD, Western blot). Format: cell-based. As to conditions: DAOY medulloblastoma cells, FIG. 1. As to the method:
[…] Cells were lysed with ice-cold lysis buffer, containing 25 mM HEPES pH 7.5, 150 mM NaCl, 1% NP-40, 10 mM MgCl2, 1 mM EDTA, 10% glycerol and protease inhibitors. A sample was kept for total Rac and Ras level analysis.
The remaining lysate was used for the pull-down (Western Blot) assay to isolate the GTP-loaded forms of Rac or Ras using the p21-binding domain of PAK1 fused to glutathione S-transferase (GST-PBD) (Glaven et al., J. Biol. Chem., 274, 2279-2285 (1999)). The GST-PBD fusion protein was prepared as previously described (Abassi, Y. and Vuori, K. EMBO J. 21, 4571-4582 (2002)).
Activated (GTP-bound) Rac was affinity-precipitated with p21-activated kinase-1 protein binding domain peptide, which binds only to Rac-GTP and not Rac-GDP. p21-Activated kinase-1 protein binding domain-agarose (7.5 μg/mg cell lysate) was added, and the reaction mixture was gently rocked at 4° C. for 60 min. The agarose beads were collected by pulsing for 5 s in a microcentrifuge at 14,000×g, and the beads were washed three times with 0.5 ml of lysis buffer.
The agarose beads were resuspended in 40 μl of 1×SDS sample buffer and boiled for 5 min. The supernatant was separated by SDS-PAGE on a 12% gel, and the proteins were transferred to nitrocellulose membrane. […] After incubation with the secondary antibody, Rac and Ras were detected by enhanced chemiluminescence.
In general terms: In western blotting, separated proteins are transferred to a membrane and probed.

The test system of series [1] is SVR cells. As to the kind of experiment: SVR tumor volume, SVR cells grown in DMEM with 0.5% or 10% FBS. In kind it is in vivo, mice. Conditions: FIG. 3. As to the method:
FIG. 3 is a chart showing the effect of hexafluoro-honokiol on SVR tumor volume […] over time (days) in mice, as compared to control, where the SVR cells were grown in 0.5 and 10% serum Dulbecco's minimal essential media (DMEM).
Having shown that hexafluoro-honokiol appears to show better results than tacrolomis, a further experiment was conducted using SVR cells grown in Dulbecco's Modified Eagle Media (DMEM) supplemented with 0.5% or 10% fetal bovine serum (FBS), according to the techniques described in Bai, et al., J. Biol. Chem., Vol. 278, Issue 37, 35501-35507, Sep. 12, 2003.

Series [2] relates to A375 human melanoma cells. The series is described as follows: Human melanoma xenograft A375 in nude mice. Format: in vivo. Conditions: 120 mg/kg daily intraperitoneal, FIG. 4. As to the method:
The compound was evaluated in conjunction with control, and with a different honokiol analogue, the bis-dichloroacetate. A375 human melanoma cells were injected into nude mice (3 mice pre treatment group) and received vehicle (intralipid) or 120 mg/kg honokiol bisdichloroacetate ester (honokiol DCA) or hexafluoro, via daily intraperitoneal administration. The volume of the tumors was calculated by the formula volume=(width squared times length) 0.52, where width is the shortest dimension.
For orientation: Xenograft models place foreign cells or tissue in a host animal.

For another series, the system named is angiosarcoma. As to conditions: nude mice; cited from earlier work.
In series [3] the test system is primary human endothelial cells. Conditions: cited from earlier work.
Series [4] relates to SVR cells. As to conditions: in vitro; cited from earlier work.

`C=CCc1cc(C(c2ccc(O)c(CC=C)c2)(C(F)(F)F)C(F)(F)F)ccc1O` [hexafluoro-honokiol, 2,2-bis(3-allyl-4-hydroxy-phenyl)-1,1,1,3,3,3-hexafluoropropane]: the “weight loss or other toxicities” value in the series on SVR angiosarcoma cells (3 mg/day intraperitoneally in 20% Intralipid) is listed as “No weight loss or other toxicities were observed”. In addition, the “tumor volume versus control” value in the series with SVR angiosarcoma cells (120 mg/kg (3 mg/day) intraperitoneally, FIG. 2) is “significantly different at all time points”. Besides, in the series on SVR angiosarcoma cells (same dose, FIG. 2), the “degree of inhibition of tumor volume compared with Tacrolimis” value is reported as “more marked”. For the same compound, the “levels of total Rac” value in the series on Rac-GTP (active Rac) was “not decreased”. In the series with Rac-GTP (active Rac) (with PDGF-BB), the “levels of Rac-GTP (active Rac)” value is given as “significantly decreased; also recorded: disappearance of RAC-GTP”. In addition, the “tumor volume over time versus control” value with SVR cells [1] was “significantly better than control”. In series [2], the “efficacy of the two compounds compared with each other” value is listed as “comparable efficacy” and the “tumor volume versus control” value is “significantly better than control”.
In the case of `C=CCc1ccc(OC(=O)C(Cl)Cl)c(-c2ccc(OC(=O)C(Cl)Cl)c(CC=C)c2)c1` [honokiol bis-dichloroacetate, honokiol bisdichloroacetate ester, reference compound], in series [2], the “efficacy of the two compounds compared with each other” value is reported as “comparable efficacy” and the “tumor volume versus control” value was “significantly better than control”.
honokiol: the efficacy against angiosarcoma result with angiosarcoma is “highly effective”. Besides, the “inhibition of primary human endothelial cells compared with fibroblasts” value in series [3] is given as “preferential inhibition”. In addition, the “anti-proliferative activity against SVR cells” value in the series on SVR cells [4] was “potent anti-proliferative activity”.
